Data on one substance can be found in patent publication US9446093B2, “Injectable aqueous ophthalmic composition and method of use therefor” (Alcon Research Ltd., priority 2009, dated 2016).

This data set can be described thus: pKa, charge and solubility of the amine groups of the polymer.

On to Poly-L-lysine, for which the “pKa value of the amine groups” value was “approximately 10.5”.
